For assay [1], the target named is T1, Alpha-2A adrenergic receptor (Homo sapiens, UniProt P08913).
T1 sequence (P08913 whole entry): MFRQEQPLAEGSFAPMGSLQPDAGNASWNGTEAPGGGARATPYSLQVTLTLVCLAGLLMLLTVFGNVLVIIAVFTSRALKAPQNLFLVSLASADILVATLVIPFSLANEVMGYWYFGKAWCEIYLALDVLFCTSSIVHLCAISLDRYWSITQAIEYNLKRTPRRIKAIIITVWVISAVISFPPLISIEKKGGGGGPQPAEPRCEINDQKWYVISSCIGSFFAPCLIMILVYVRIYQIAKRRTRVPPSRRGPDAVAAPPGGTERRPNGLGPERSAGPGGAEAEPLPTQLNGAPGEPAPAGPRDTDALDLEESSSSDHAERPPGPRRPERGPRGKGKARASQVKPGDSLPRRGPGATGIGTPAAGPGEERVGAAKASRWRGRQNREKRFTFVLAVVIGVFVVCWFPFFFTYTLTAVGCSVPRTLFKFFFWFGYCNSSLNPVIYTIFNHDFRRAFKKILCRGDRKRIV
Type of assay: functional, cell-based.

Another assay concerns the target D(3) dopamine receptor (Homo sapiens, UniProt P35462).
In assay [2] the target is Delta-type opioid receptor (Homo sapiens, UniProt P41143).
Chain of Delta-type opioid receptor (P41143 whole entry): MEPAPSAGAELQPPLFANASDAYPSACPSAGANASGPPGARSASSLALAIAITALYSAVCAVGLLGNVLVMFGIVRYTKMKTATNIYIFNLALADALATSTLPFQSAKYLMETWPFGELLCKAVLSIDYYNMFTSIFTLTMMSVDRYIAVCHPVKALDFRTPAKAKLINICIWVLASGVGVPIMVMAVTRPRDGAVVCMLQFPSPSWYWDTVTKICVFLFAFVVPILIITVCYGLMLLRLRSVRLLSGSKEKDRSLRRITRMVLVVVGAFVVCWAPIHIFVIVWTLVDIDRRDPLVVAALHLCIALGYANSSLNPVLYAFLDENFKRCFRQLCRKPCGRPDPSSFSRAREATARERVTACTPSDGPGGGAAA
The target in assay [3] is T2, Muscarinic acetylcholine receptor M2 (Homo sapiens, UniProt P08172).
T2 sequence (P08172 whole entry): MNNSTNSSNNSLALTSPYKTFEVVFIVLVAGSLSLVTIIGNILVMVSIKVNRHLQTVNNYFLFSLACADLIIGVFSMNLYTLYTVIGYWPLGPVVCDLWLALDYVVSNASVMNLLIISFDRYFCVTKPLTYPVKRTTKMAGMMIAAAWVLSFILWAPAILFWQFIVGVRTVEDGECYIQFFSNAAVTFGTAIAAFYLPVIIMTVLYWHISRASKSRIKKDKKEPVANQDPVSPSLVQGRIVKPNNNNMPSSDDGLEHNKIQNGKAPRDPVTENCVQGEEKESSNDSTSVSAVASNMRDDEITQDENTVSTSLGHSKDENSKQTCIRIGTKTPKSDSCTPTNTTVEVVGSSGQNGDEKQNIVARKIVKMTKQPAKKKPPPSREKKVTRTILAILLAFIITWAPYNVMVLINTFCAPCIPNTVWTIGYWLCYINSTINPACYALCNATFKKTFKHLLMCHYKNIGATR
Type of assay: functional, cell-based.

The target in assay [4] is Sodium-dependent dopamine transporter (Homo sapiens, UniProt Q01959).
Chain of Sodium-dependent dopamine transporter (Q01959 whole entry): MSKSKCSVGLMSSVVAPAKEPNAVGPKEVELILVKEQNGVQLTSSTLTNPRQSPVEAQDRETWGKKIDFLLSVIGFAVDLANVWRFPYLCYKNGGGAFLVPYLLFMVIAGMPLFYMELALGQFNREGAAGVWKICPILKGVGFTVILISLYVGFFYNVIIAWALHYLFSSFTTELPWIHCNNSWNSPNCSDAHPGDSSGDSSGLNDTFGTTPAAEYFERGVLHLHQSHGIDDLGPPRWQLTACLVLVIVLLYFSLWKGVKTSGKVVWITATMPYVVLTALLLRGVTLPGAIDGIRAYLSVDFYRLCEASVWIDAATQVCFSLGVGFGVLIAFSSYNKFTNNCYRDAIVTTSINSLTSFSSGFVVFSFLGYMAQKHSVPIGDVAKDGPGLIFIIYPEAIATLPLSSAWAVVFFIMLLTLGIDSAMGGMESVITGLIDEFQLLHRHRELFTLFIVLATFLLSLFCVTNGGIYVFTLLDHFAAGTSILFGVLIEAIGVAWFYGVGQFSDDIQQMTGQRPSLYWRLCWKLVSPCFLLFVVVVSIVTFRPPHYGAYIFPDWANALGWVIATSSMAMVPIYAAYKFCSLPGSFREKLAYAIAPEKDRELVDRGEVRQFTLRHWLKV
For assay [5], the target named is T3, Amine oxidase [flavin-containing] A (Homo sapiens, UniProt P21397).
T3 sequence (P21397 whole entry): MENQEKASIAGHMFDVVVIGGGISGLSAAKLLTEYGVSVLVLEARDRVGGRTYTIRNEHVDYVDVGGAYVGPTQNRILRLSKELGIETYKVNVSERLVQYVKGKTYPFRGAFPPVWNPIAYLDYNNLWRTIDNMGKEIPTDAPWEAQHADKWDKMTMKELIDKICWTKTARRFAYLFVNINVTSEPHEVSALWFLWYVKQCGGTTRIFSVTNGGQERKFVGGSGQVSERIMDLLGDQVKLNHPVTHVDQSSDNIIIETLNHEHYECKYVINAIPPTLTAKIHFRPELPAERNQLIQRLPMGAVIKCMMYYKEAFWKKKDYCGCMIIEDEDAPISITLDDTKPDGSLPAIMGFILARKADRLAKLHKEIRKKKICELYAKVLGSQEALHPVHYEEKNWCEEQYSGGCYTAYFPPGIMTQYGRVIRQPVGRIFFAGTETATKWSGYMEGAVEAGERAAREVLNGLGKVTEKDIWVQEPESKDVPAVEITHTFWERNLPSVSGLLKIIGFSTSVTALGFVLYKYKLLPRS
Format: functional.

The target of assay [6] is T4, Equilibrative nucleoside transporter 1 (Homo sapiens, UniProt Q99808).
T4 sequence (Q99808 whole entry): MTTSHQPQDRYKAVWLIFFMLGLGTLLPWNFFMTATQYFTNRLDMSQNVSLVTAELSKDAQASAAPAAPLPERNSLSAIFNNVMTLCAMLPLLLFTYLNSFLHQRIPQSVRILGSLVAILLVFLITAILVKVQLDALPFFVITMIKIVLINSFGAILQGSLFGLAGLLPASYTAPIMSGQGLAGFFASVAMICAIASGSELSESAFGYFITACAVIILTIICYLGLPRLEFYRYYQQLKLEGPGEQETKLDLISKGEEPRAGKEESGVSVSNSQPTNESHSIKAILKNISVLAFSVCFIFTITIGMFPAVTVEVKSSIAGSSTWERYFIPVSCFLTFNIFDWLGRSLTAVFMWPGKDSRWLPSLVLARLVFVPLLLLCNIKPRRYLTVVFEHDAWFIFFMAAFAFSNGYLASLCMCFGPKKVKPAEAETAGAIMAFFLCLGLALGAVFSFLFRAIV

A further assay concerns the target Motilin receptor (Homo sapiens, UniProt O43193).
The target of assay [7] is cGMP-inhibited 3',5'-cyclic phosphodiesterase 3A (Homo sapiens, UniProt Q14432). Type of assay: functional.
Chain of cGMP-inhibited 3',5'-cyclic phosphodiesterase 3A (Q14432 whole entry): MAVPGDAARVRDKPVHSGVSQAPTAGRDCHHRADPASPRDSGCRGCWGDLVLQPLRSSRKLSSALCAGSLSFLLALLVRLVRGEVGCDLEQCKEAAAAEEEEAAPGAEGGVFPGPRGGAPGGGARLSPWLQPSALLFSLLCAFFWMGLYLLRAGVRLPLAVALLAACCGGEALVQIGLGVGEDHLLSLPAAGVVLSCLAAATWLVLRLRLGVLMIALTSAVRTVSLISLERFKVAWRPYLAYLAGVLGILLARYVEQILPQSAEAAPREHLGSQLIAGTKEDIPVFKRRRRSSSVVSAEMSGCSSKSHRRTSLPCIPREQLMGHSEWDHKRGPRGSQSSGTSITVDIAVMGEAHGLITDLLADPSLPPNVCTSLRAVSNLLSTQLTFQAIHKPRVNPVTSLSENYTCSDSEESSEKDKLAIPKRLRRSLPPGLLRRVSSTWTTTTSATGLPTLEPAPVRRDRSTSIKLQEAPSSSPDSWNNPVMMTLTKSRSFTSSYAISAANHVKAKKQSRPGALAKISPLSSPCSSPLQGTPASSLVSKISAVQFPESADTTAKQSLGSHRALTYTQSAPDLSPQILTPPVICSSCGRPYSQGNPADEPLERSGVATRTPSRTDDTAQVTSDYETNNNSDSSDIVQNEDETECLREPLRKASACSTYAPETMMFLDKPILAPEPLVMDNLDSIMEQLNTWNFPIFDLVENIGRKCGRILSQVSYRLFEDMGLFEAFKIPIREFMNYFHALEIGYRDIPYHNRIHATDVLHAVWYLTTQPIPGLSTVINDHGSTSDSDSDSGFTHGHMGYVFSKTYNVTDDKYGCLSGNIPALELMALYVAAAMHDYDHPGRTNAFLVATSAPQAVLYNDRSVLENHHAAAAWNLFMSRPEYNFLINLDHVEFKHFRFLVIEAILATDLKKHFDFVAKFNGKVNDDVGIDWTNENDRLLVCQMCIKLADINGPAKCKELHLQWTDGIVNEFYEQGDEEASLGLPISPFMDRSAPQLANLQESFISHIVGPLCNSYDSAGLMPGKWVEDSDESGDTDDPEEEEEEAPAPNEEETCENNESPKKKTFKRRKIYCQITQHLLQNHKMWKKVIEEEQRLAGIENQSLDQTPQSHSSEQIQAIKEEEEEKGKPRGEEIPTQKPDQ
In assay [8] the target is T2, Muscarinic acetylcholine receptor M2. Type of assay: functional, cell-based. This is another data set of the same source.

Where only a bound is given, the exact number is not on record here.

This passage reports AC50 results from ChEMBL document CHEMBL5291721, “A preclinical secondary pharmacology resource illuminates target-adverse drug reaction associations of marketed drugs” (Nat Commun, 2023).
Note: assay procedure not described here.

Chain of Motilin receptor (O43193 whole entry): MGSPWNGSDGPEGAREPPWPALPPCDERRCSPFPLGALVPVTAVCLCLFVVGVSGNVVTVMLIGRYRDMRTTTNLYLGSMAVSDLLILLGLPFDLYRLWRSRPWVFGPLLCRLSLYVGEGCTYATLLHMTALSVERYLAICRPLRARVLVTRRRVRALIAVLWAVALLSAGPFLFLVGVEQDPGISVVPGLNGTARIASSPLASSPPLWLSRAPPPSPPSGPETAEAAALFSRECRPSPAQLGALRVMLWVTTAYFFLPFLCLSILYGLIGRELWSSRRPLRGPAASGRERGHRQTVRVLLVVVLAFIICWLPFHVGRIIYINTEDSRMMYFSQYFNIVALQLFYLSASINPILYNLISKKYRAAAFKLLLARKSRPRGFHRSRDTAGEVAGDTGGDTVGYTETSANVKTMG
Chain of D(3) dopamine receptor (P35462 whole entry): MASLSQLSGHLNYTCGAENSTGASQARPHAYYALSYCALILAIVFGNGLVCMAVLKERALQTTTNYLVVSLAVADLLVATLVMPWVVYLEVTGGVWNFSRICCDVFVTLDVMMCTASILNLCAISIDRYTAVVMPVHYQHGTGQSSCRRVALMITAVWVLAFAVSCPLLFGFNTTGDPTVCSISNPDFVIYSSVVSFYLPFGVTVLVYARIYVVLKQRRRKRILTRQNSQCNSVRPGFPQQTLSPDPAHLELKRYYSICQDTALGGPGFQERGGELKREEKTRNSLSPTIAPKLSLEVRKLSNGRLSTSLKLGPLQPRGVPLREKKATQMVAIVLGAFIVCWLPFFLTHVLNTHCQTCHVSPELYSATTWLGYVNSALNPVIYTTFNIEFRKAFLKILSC

Consider `COc1ccc(-c2ccc3cc(C(=O)O)ccc3c2)cc1C12CC3CC(CC(C3)C1)C2`, for which the AC50 (in assay [1]; at D(3) dopamine receptor; in [2]; in assay [3]; in [4]; in assay [5]) was > 30 µM throughout. Moreover, the concentration at half-maximal activity (AC50) (in assay [6]; on Motilin receptor; in [7]; in assay [8]) was > 30 µM each time.

Turning to `CNS(=O)(=O)Cc1ccc2[nH]cc(CCN(C)C)c2c1`, the concentration at half-maximal activity (AC50) is > 30 µM in assay [1]; > 30 µM on D(3) dopamine receptor; > 30 µM in assay [2]; > 30 µM in assay [3]; > 10 µM in assay [4]; > 30 µM in assay [5]. Also, the AC50 in assay [6] was > 30 µM; on Motilin receptor, > 10 µM; in assay [7] it was > 30 µM; in assay [8], > 30 µM.

With `CC(=O)O[C@H]1CC[C@@]2(C)C(=CC[C@@H]3[C@@H]2CC[C@]2(C)C(c4cccnc4)=CC[C@@H]32)C1` [ABIRATERONE ACETATE], the AC50 (in assay [1]; on D(3) dopamine receptor; in [2]; in assay [3]; in [4]; in assay [5]) was > 30 µM in each case. Moreover, the half-maximal activity concentration (AC50) (in assay [6]; at Motilin receptor; in [7]; in [8]) was > 30 µM in each case.

As to `NCC(=O)CCC(=O)O` [AMINOLEVULINIC ACID], the AC50 (in assay [1]; at D(3) dopamine receptor; in assay [2]; in assay [3]; in assay [4]; in assay [5]) was > 30 µM each time. In addition, the AC50 (on Motilin receptor; in [7]; in [8]) was > 30 µM throughout.

In the case of `O=C(O)CCCCCCCC(=O)O` [AZELAIC ACID], the half-maximal activity concentration (AC50) in assay [1] is > 10 µM; on D(3) dopamine receptor, > 30 µM; in assay [2], > 30 µM; in assay [3] it was > 10 µM; in assay [4], > 10 µM; in assay [5] it was > 10 µM. For the same molecule, the AC50 in assay [6] is > 10 µM; on Motilin receptor it was > 10 µM; in assay [7] it was > 30 µM; in assay [8] it was > 10 µM.

As to `Cn1c(=O)c2c(ncn2CC2OCCO2)n(C)c1=O` [DOXOFYLLINE], the AC50 (in [1]; at D(3) dopamine receptor; in assay [2]; in [3]; in assay [4]; in [5]) was > 30 µM in each case. Also, the concentration at half-maximal activity (AC50) (in [6]; at Motilin receptor; in [7]; in assay [8]) was > 30 µM each time.

As to `CCCCc1ncc(/C=C(\Cc2cccs2)C(=O)O)n1Cc1ccc(C(=O)O)cc1` [EPROSARTAN], the AC50 in assay [1] is > 10 µM; at D(3) dopamine receptor, > 10 µM; in assay [2] it was > 10 µM; in [3], > 10 µM; in assay [4], > 30 µM; in assay [5] it was > 10 µM. Moreover, the AC50 (in assay [6]; on Motilin receptor; in assay [7]; in [8]) was > 10 µM in each case.

For `COc1ccc(CCN(C)CCCC(C#N)(c2cc(OC)c(OC)c(OC)c2)C(C)C)cc1OC` (stereo not drawn) [GALLOPAMIL], the AC50 in assay [1] was > 30 µM; on D(3) dopamine receptor it was 3.3 µM; in [2] it was > 30 µM; in assay [3] it was > 30 µM; in assay [4], > 30 µM; in assay [5], > 30 µM. For the same molecule, the AC50 (at Motilin receptor; in [7]; in assay [8]) was > 30 µM each time.

`CC(C)C(=O)c1c(C(C)C)nn2ccccc12` [IBUDILAST]: the AC50 (in assay [1]; on D(3) dopamine receptor; in [2]; in assay [3]; in [4]; in assay [6]) was > 30 µM each time. For the same molecule, the AC50 (on Motilin receptor; in [8]) was > 30 µM throughout.

In the case of `Nc1nc(N)nc(-c2cc(Cl)ccc2Cl)n1` [IRSOGLADINE], the half-maximal activity concentration (AC50) (in [1]; in assay [3]; in assay [4]; in assay [5]; at Motilin receptor; in [7]) was > 30 µM each time. The AC50 in [8] is > 30 µM.

As to `CNC(C)CCC=C(C)C` (stereo not drawn) [ISOMETHEPTENE], the AC50 (in assay [4]; in assay [6]; at Motilin receptor) was > 30 µM in each case.

Consider `CC(Oc1c(Cl)cccc1Cl)C1=NCCN1` (stereo not drawn) [LOFEXIDINE], for which the AC50 (on D(3) dopamine receptor; in assay [2]; in [3]; in assay [4]; in assay [5]; in assay [6]) was > 30 µM each time. For the same molecule, the AC50 (on Motilin receptor; in assay [7]; in [8]) was > 30 µM each time.

Consider `Cc1cccc(C(C)c2cnc[nH]2)c1C` (stereo not drawn) [MEDETOMIDINE], for which the concentration at half-maximal activity (AC50) is > 30 µM at D(3) dopamine receptor; > 30 µM in assay [2]; > 10 µM in [3]; > 30 µM in assay [4]; > 30 µM in assay [5]; > 30 µM in [6]. The half-maximal activity concentration (AC50) is > 30 µM on Motilin receptor, > 30 µM in assay [7] and > 10 µM in assay [8].

Regarding `O=C(NCCN1CCOCC1)c1ccc(Cl)cc1` [MOCLOBEMIDE], the AC50 was > 10 µM in [1]; > 30 µM on D(3) dopamine receptor; > 30 µM in assay [2]; > 10 µM in [3]; > 10 µM in [4]; > 10 µM in assay [6]. The half-maximal activity concentration (AC50) on Motilin receptor is > 10 µM; in assay [7], > 30 µM; in assay [8], > 10 µM.

As to `N#Cc1ccc([C@H]2CCc3cncn32)c(F)c1` [OSILODROSTAT], the AC50 (on D(3) dopamine receptor; in assay [2]; in [4]; in [6]; on Motilin receptor; in assay [7]) was > 10 µM throughout.

For `O=C(O)/C=C/c1ccc(Cn2ccnc2)cc1` [OZAGREL], the AC50 (in assay [1]; on D(3) dopamine receptor; in assay [2]; in [3]; in assay [4]; in assay [5]) was > 30 µM in each case. Moreover, the AC50 (on Motilin receptor; in assay [7]; in [8]) was > 30 µM each time.

One may read the AC50 as the concentration giving half of the maximal activity seen. Read a high AC50 as weaker potency.
